The results in this text go back to patent US20030206968A1, “Fungicidal mixtures” (priority 1999, published 2003).

Holding throughout (type): in vivo
One assay relates to Botrytis cinerea. Briefly: Apple fruit Botrytis test, Botrytis cinerea on apple fruits, 3 day residual. Here is the method:
1. Apples (Malus X domestica Borkh.) variety Golden Delicious are disinfected by washing them briefly in 70% ethanol. After drying the apples are marked with four short equal-distant lines indicating the positions to be wounded.
2. Corresponding with the marks, four holes are poked around the apple equator with a pipette tip. 10 μl of the treatment solution are pipetted into each hole.
3. Three hours after application, 10 μl of a conidial suspension of Botrytis cinerea are pipetted into each. For incubation, the treated/inoculated apples are set up for five days.
4. Disease occurs as rotten apple tissue surrounding the inoculated wounds. The diameter of the rotten zone around each wound is measured.
1. Technical compounds are formulated in a solvent system consisting of 5% acetone and 0.05% Tween 20 in deionized water. Compounds are dissolved in acetone prior to dilution with water. Formulated compounds are prepared using deionized water.
2. Three kinds of controls are included:
Assessments of the diseases took place at the indicated day after the application of the compounds. Per cent infected leaf area infected was evaluated. The efficacy of the compounds/compounds mixtures to control the diseases was calculated by using the formula: [formula]
(§1) Synergy was calculated using the % disease control values of specific treatments for the two COLBY formula given hereinabove
Fungicidal efficacy of the mixture of Azolopyrimidine A+vinclozolin (3 day residual) against Botrytis cinerea on apple fruits The tank mix was obtained from technical material of Azolopyrimidine A and a WG formulation containing 500 g vinclozolin per kg.
Fungicidal efficacy of the mixture of Azolopyrimidine A+cyprodinil (3 day residual) against Botrytis cinerea on apple fruits The tank mix was obtained from technical material of Azolopyrimidine A and a WG formulation containing 750 g cyprodinil per kg.
Fungicidal efficacy of the mixture of Azolopyrimidine A+benomyl (3 day residual) against Botrytis cinerea on apple fruits The tank mix was obtained from technical material of Azolopyrimidine A and a WP formulation containing 500 g benomyl per kg.

The test system of the next assay is Erysiphe cichoracearum. Briefly: Greenhouse, Erysiphe cichoracearum on cucumbers, 1 day residual. As to conditions: Example 24. The procedure: (§2) The trials are carried out under greenhouse (Examples 1 to 32) or field conditions (Examples 33 to 40) in residual or curative applications. The fungicides are applied in single treatments, or in a combination comprising an azolopyrimidine of formula I and a compound selected from the classes (A), (B) and (C) as defined above. The compounds are applied in form of an aqueous spray mix obtained from a concentrated formulation or the technical material.
(§3) 1. Seed is planted in 6 cm diameter plastic pots and maintained in the greenhouse.
(§4) 2. When the primary leaf is fully expanded in the case of cereals or several leaves are present in the case of dicots, formulated test compounds are sprayed with a three nozzle overhead fungicide sprayer to near run-off. Alternatively, a single nozzle overhead track sprayer is used for application of the compounds to cereals at a rate of 200 l/ha. Plants are then allowed to air-dry.
(§5) 3. Inoculation precedes treatment in the case of curative evaluations and follows treatment in case of residual evaluations. For inoculation of powdery mildew disease, plants are set up on greenhouse benches with bottom watering mats and inoculated by dusting them with conidia from infected plants. Between inoculation and treatment for curative evaluations and between treatment and inoculation for residual evaluations, plants are maintained in the greenhouse with bottom watering.
(§6) 4. Disease on the foliage as percent leaf area with disease symptoms/signs is evaluated about 7 days after inoculation. In the case of wheat, the tips and bases of the leaves are excluded from the evaluation. [formula]
(§7) 1. Technical compounds are formulated in a solvent/surfactant system consisting of 5% acetone and 0.05% Tween 20 in deionized water. Compounds are dissolved in acetone prior to addition of the water; the Tween 20 can be added through either the acetone or the water. Dilutions are made using the solvent/surfactant system. Formulated compounds are prepared using deionized water.
(§8) 2. Two kinds of controls are included: Plants treated with the solvent/surfactant solution and inoculated (Solvent Blank). Untreated plants which are inoculated (Inoculated Control).
(§9) Assessments of the diseases took place at the indicated day after the application of the compounds. Per cent infected leaf area infected was evaluated. The efficacy of the compounds/compounds mixtures to control the diseases was calculated by using the formula given above under item 4: […]
as §1
Fungicidal efficacy of the mixture of Azolopyrimidine C+triforine (1 day residual) against Erysiphe cichoracearum on cucumbers
the tank mix was obtained from a SC formulation containing 100 g of Azolopyrimidine C per liter and an DC formulation containing and 190 g of triforine per liter.
Fungicidal efficacy of the mixture of Azolopyrimidine C+cyprodinil (1 day residual) against Erysiphe cichoracearum on cucumbers The tank mix was obtained from a SC formulation containing 100 g of Azolopyrimidine C per liter and a WG formulation containing and 750 g of cyprodinil per kg.

A further assay deals with Alternaria solani. Briefly: Greenhouse, Alternaria solani on tomatoes, 1 day residual. The settings on record: Example 25; rate 16 g/ha. The procedure:
as §2, §3, §4, §5
(§10) For inoculation of non-powdery mildew diseases, an aqueous spore suspension of the pathogen is applied to the plant and the plants are kept 1-2 days in a moist infection chamber before being returned to the greenhouse where they are maintained by bottom watering.
as §6, §7, §8, §9, §1
Fungicidal efficacy of the mixture of Azolopyrimidine C and different fungicides (1 day residual) against Alternaria solani on tomatoes The tank mix was obtained from an SC formulation containing 100 g Azolopyrimidine A per liter and WP formulations of dithianon (750 g/kg), captan (500 g/kg), cyprodinil (750 g/kg), mancozeb (800 g/kg), or a SC formulation of chlorothalonil (500 g/l), or a FS formulation of fenpiclonil (400 g/l), spectively.

In another assay the test system is Septoria tritici. Briefly: Field test, Septoria tritici on wheat. The procedure:
as §2
(§11) For the field study formulated Azolopyrimidine A, B or C and formulated compounds from the classes (A), (B) and (C) were used.
as §9, §1
(§12) The compounds are applied according to good agricultural practice in the form of an aqueous spray mix obtained from a concentrated formulation or the technical material at a rate of 400 l/ha. The disease control is evaluated according to the formula given for the greenhouse tests.
Fungicidal efficacy of the mixture of Azolopyrimidine C+metconazole in the field against Septoria tritici on wheat The tank mix was obtained from an EC formulation containing 150 g Azolopyrimidine C per liter and a SL formulation containing 60 g metconazole per liter. The observed and expected efficacies with different rates are given in Table XXXIVa (19 days after application) and Table XXXIVb (25 days after application):
Fungicidal efficacy of the mixture of (S)-Azolopyrimidine C+kresoxim methyl in the field against Septoria tritici on wheat The tank mix was obtained from a SC formulation containing 100 g (S)-Azolopyrimidine C per liter and a WG formulation containing 500 g kresoxim methyl per kg. The observed and expected efficacies with different rates are given in Tables XXXVa (7 days after application), XXXVb (22 days after application), XXXVc (34 days after application), and XXXVd (41 days after application):
Fungicidal efficacy of the mixture of Azolopyrimidine A and different cereal fungicides the field against Septoria tritici on wheat 15 days after application The tank mix was obtained from an SC formulation containing 100 g Azolopyrimidine A per liter and commercially available formulations of metconazole, epoxiconazole or propiconazole, respectively.

The test system of assay [1] is Puccinia recondita. Briefly: Field test, Puccinia recondita on wheat. As to conditions: 50 days after application. The procedure:
as §2, §11, §9, §1, §12
Fungicidal efficacy of the mixture of Azolopyrimidine A and different cereal fungicides in the field against Puccinia recondita on wheat 50 days after application The tank mix was obtained from an SC formulation containing 100 g Azolopyrimidine A per liter and commercially available formulations of metconazole, epoxiconazole, propiconazole or kresoxim methyl, respectively.

Assay [2] relates to Puccinia recondita. Description: Greenhouse, Puccinia recondita on wheat, 1 day curative, plants sprayed twice, once with each compound. The settings on record: Example 12. Here is the method: as §2, §3, §4, §5, §10, §6, §7, §8, §9, §1
Fungicidal efficacy of the mixture of Azolopyrimidine C+kresoxim methyl (1 day curative) against Puccinia recondita on wheat Plants sprayed twice, once with each compound. The tank mixes were obtained from a SC formulation containing 100 g Azolopyrimidine C per liter and a WG containing 500 g kresoxim methyl per kg.

Assay [3] has as its system Blumeria graminis. Briefly: Field test, Blumeria graminis on wheat. The settings on record: 15 days after application. The procedure:
as §2, §11, §9, §1, §12
Fungicidal efficacy of the mixture of (S)-Azolopyrimidine C+cyproconazole in the field against Blumeria graminis on wheat 17 days after application The tank mix was obtained from a SC formulation containing 100 g (S)-Azolopyrimidine C per liter and an EC formulation containing 60 g cyproconazole per liter.
Fungicidal efficacy of the mixture of (S)-Azolopyrimidine C+azoxystrobin in the field against Blumeria graminis on wheat 17 days after application The tank mix was obtained from a SC formulation containing 100 g (S)-Azolopyrimidine C per liter and a SC formulation containing 250 g azoxystrobin per kg.
Fungicidal efficacy of the mixture of Azolopyrimidine A and different cereal fungicides in the field against Blumeria graminis on wheat 15 days after application The tank mix was obtained from an SC formulation containing 100 g Azolopyrimidine A per liter and commercially available formulations of metconazole, epoxiconazole or kresoxim methyl, respectively.

The subject of a further assay is Leptosphaeria nodorum. Description: Greenhouse, Leptosphaeria nodorum on wheat, 3 day residual. Here is the method: as §2, §3, §4, §5, §10, §6, §7, §8, §9, §1
Fungicidal efficacy of the mixture of Azolopyrimidine A+fenpropimorph (3 day residual) against Leptosphaeria nodorum on wheat The tank mix was obtained from technical material of Azolopyrimidine A and an EC formulation containing 750 g fenpropimorph per liter.
Fungicidal efficacy of the mixture of Azolopyrimidine A+tebuconazole (3 day residual) against Leptosphaeria nodorum on wheat The tank mix was obtained from technical material of Azolopyrimidine A and an EC formulation containing 250 g tebuconazole per liter.

Assay [4] has as its system Blumeria graminis. Briefly: Greenhouse, Blumeria graminis on wheat, 2 day residual. As to conditions: Example 3. Here is the method: as §2, §3, §4, §5, §6
1. […]
as §9
Synergy was calculated using the % disease control values of specific treatments for the two COLBY formula given hereinabove […]

The mark [5] stands for this setting: Azolopyrimidine A 125 g/ha alone.

Consider `Cc1cc(C2CC2)nc(Nc2ccccc2)n1` [cyprodinil], for which the “Observed Efficacy” value in the assay with Botrytis cinerea (Example 5, dose rate 0.1 ppm) stood at 2%; with Botrytis cinerea (Example 5, dose rate 1 ppm) it was 46%; with Erysiphe cichoracearum (dose rate 4 ppm), 0%; in the assay on Erysiphe cichoracearum (dose rate 16 ppm), 29%; in the assay on Alternaria solani it was 13%.
In the case of `CCCC1COC(Cn2cncn2)(c2ccc(Cl)cc2Cl)O1` (centres unmarked) [propiconazole], the “Observed Efficacy” value with Septoria tritici (propiconazole 63 g/ha alone, 15 days after application, field, wheat) is reported as 72; with Puccinia recondita [1] (propiconazole 63 g/ha alone), 49.
In the case of `CO/N=C(/C(=O)OC)c1ccccc1COc1ccccc1C` [kresoxim methyl], the “Observed Efficacy” value amounted to 0% in the assay on Puccinia recondita [2] (dose rate 25 g/ha); 1% in the assay on Puccinia recondita [2] (dose rate 50 g/ha); 0% in the assay with Puccinia recondita [2] (dose rate 100 g/ha); 1% with Puccinia recondita [2] (dose rate 200 g/ha); 5% with Puccinia recondita [2] (dose rate 400 g/ha); 40% in the assay on Septoria tritici (Example 35, 7 days after application, dose rate 100 g/ha). Besides, the “Observed Efficacy” value amounted to 64% with Septoria tritici (Example 35, 22 days after application, dose rate 100 g/ha); 44% with Septoria tritici (Example 35, 34 days after application, dose rate 50 g/ha); 59% in the assay with Septoria tritici (Example 35, 34 days after application, dose rate 100 g/ha); 92 in the assay on Septoria tritici (kresoxim methyl 100 g/ha alone, 41 days after application, field, wheat); 85 with Blumeria graminis [3] (kresoxim methyl 100 g/ha alone); 0 in the assay on Puccinia recondita [1] (kresoxim methyl 100 g/ha alone).
As for `Fc1ccc([C@]2(Cn3cncn3)O[C@H]2c2ccccc2Cl)cc1` (racemic) [epoxiconazole], the “Observed Efficacy” value in the assay on Septoria tritici (epoxiconazole 63 g/ha alone, 15 days after application, field, wheat) is reported as 93; with Blumeria graminis [3] (epoxiconazole 63 g/ha alone), 40; with Puccinia recondita [1] (epoxiconazole 63 g/ha alone), 95.
Turning to `CC1CCN(c2c(-c3c(F)cccc3Cl)c(Cl)nc3ncnn23)CC1` [Azolopyrimidine A, 5-chloro-6-(2-chloro-6-fluorophenyl)-7-(4-methylpiperid-1-yl)-[1,2,4]triazolo[1,5-a]pyrimidine], the “Observed Efficacy” value with Leptosphaeria nodorum (Example 1, dose rate 10 ppm) is reported as 35%; in the assay with Leptosphaeria nodorum (Example 1, dose rate 100 ppm), 40%; in the assay with Leptosphaeria nodorum (Example 2, dose rate 100 ppm), 40%; in the assay with Blumeria graminis [4] (dose rate 10 ppm), 14%; with Botrytis cinerea (Example 4, dose rate 1 ppm), 0%; in the assay with Botrytis cinerea (Example 4, dose rate 10 ppm), 33%. Further, the “Observed Efficacy” value with Botrytis cinerea (Example 5, dose rate 1 ppm) came out at 0%; in the assay on Botrytis cinerea (Example 5, dose rate 10 ppm) it was 33%; in the assay on Botrytis cinerea (Example 6, dose rate 1 ppm), 0%; in the assay on Botrytis cinerea (Example 6, dose rate 10 ppm), 0%; in the assay on Botrytis cinerea (Example 7, dose rate 1 ppm), 0%; in the assay with Botrytis cinerea (Example 7, dose rate 10 ppm) it was 25%. Also, the “Observed Efficacy” value is on record as 63 in the assay on Septoria tritici (Azolopyrimidine A 125 g/ha alone, 15 days after application, field, wheat); 22 with Blumeria graminis [3] (setting [5]); 0 with Puccinia recondita [1] (setting [5]).
Take `CC(C)(C)C(O)(CCc1ccc(Cl)cc1)Cn1cncn1` (centres unmarked) [tebuconazole]: the “Observed Efficacy” value with Leptosphaeria nodorum (Example 2, dose rate 0.02 ppm) is listed as 25%; with Leptosphaeria nodorum (Example 2, dose rate 0.2 ppm), 19%; with Blumeria graminis [4] (dose rate 0.02 ppm) it was 2%; with Blumeria graminis [4] (dose rate 0.2 ppm) it was 9%.
